Reference: patent EP4371976B1, “IONIZABLE LIPIDS AND LIPID NANOPARTICLES CONTAINING THEREOF” (Certest Biotec, S.L., priority 2022, dated 2024)

Tests used:
[1] = RNA encapsulation efficiency of LNPs by Quant-IT Ribogreen; type: physicochemical; details: LNPs with luciferase mRNA; ionizable lipid:non-cationic lipid:sterol:PEG-modified lipid 50:10:38.5:1.5; percentage of RNA entrapped in the LNP
Method: The mRNA aqueous solution was then carefully added to the ethanol solution, and the resulted solution was homogenized by pipetting up and down for 4-5 times. The resulting LNPs were immediately diluted 1:1 with Tris buffer and dialyzed overnight against Tris buffer containing 15% sucrose. The resulting LNP solution was then collected, and the encapsulated mRNA was assessed by Quant-IT® Ribogreen (Invitrogen R11490) following the manufacturer's instructions.
(§1) The LNP solution was then adjusted to a final concentration of mRNA of 100 µg/ml. Size distribution, polydispersity and Z-potential were measured by dynamic light scattering (DLS) using Malvern Zetasizer Advance Lab Blue Label. RNA encapsulation was assessed by Quant-IT® Ribogreen following the manufacturer's instructions.

[2] = Size distribution, polydispersity and Z-potential of LNPs by dynamic light scattering (Malvern Zetasizer); type: physicochemical; details: LNPs, standard formulation 50:10:38.5:1.5; DLS
Method: as §1

[3] = Apparent pKa of LNPs comprising the ionizable lipid (Table 6); details: standard formulation 50:10:38.5:1.5

Row | Structure (SMILES) | Encaps. efficiency (%) [1] [%] | P.D.I. [2] | Particle size/ Ø (nm) [2] [nm] | Z Potential (± D.E.) [mV] [2] [mV] | Apparent pKa [3]
1 | CCCCCCCCCCCCCCCCCC(=O)NC(CCSCCC(=O)OCC(CCCCCC)CCCCCCCC)C(=O)NC1CCN(C)CC1 (centres unmarked) [VC-LC-0433] | 96.77 | 0.13 | 180.8 | 4.87 | 7.75
2 | CCCCCCCCCCCCCCCCOC(=O)CCSCCC(NC(=O)C(CCCCCC)CCCCCCCC)C(=O)NCCCN1CCCC1 (centres unmarked) [VC-LC-0248] | 89.76 | 0.35 | 248 | 4.52 | 7.24
3 | CCCCCCCCCCCCOC(=O)CCSCCC(NC(=O)C(CCCCCC)CCCCCCCC)C(=O)NCC1CCN(C)CC1 (centres unmarked) [VC-LC-0494] | 98.99 | 0.22 | 169.8 | 5.52 | 6.86
4 | CCCCCCCCC(CCCCCC)COC(=O)C(CCSCCC(=O)OCCCCCCCC(C)C)C(=O)NCCCN1CCOCC1 (centres unmarked) [VC-LC-0607] | 49.38 | 0.17 | 148.0 | -11.81 | 5.89
5 | CCCCCCCCOC(=O)CCSCC(CC(=O)NC1CCN(C)CC1)C(=O)OCC(CCCCCC)CCCCCCCC (centres unmarked) [VC-LC-0535] | 96.61 | 0.11 | 144.7 | 4.45 | 7.87
6 | CCCCCCCCCCC(CCCCCCCC)C(=O)NC(CCSCCC(=O)OCCCCCCCC)C(=O)NCC1CCN(C)CC1 (centres unmarked) [VC-LC-0519] | 97.15 | 0.16 | 137.9 | -1.93 | 6.69
7 | CCCCCCCC#CCOC(=O)CCSCC(CC(=O)NC1CCN(C)CC1)C(=O)OCC(CCCCCC)CCCCCCCC (centres unmarked) [VC-LC-0538] | 96.86 | 0.16 | 153.4 | 5.13 | 8.25
8 | CCCCCCCCCCCCCCOC(=O)CCSCCC(NC(=O)C(CCCCCCCC)CCCCCCCCCC)C(=O)NCCCN1CCOCC1 (centres unmarked) [VC-LC-0577] | 55.61 | 0.13 | 182.2 | -15.06 | 5.69
9 | CCCCCCCC/C=C\CCCCCCCCOC(=O)CCSCCC(NC(=O)C(CCCCCCCC)CCCCCCCCCC)C(=O)NCC1CCN(C)CC1 (centres unmarked) [VC-LC-0523] | 95.57 | 0.17 | 169.3 | 5.29 | 7.32
10 | CCCCCCCC#CCOC(=O)CCSCCC(NC(=O)CCCCCCCCCCCCCCCCC)C(=O)NCCCN1CCOCC1 (centres unmarked) [VC-LC-0390] | 83.80 | 0.24 | 192.8 | -1.14 | 6.10
11 | CCCCCCCCCCCCC(CCCCCCCCCC)COC(=O)CCSCCC(NC(=O)C(CCCCCC)CCCCCCCC)C(=O)NCCN1CCOCC1 (centres unmarked) [VC-LC-0407] | 60.22 | 0.1 | 167.1 | -12.36 | 4.66
12 | CCCCCCCCCCCCCCCCOC(=O)CCSCCC(NC(=O)C(CCCCCC)CCCCCCCC)C(=O)NCCN1CCN(C)CC1 (centres unmarked) [VC-LC-0185] | 70.97 |  |  | -1.54 | 5.85
13 | CCCCCCCC/C=C\CCCCCCCCOC(=O)CCSCCC(NC(=O)C(CCCCCC)CCCCCCCC)C(=O)NC1CCN(C)CC1 (centres unmarked) [VC-LC-0430] | 84.48 | 0.23 | 216.2 | 1.65 | 7.00
14 | CCCCCCCCCCCCCOC(=O)CCSCCC(NC(=O)C(CCCCCC)CCCCCCCC)C(=O)NCCN1CCOCC1 (centres unmarked) [VC-LC-0392] | 40.58 | 0.19 | 136.1 | -11.14 | 4.72
15 | CCCCCCCCCCCCC(CCCCCCCCCC)COC(=O)CCSCC(CC(=O)NC1CCN(C)CC1)C(=O)OCC(CCCCCC)CCCCCCCC (centres unmarked) [VC-LC-0537] | 69.42 | 0.14 | 165.1 | -8.81 | 5.23

Results, then the compound that gave them:

Row | Encaps. efficiency (%) [1] [%] | P.D.I. [2] | Particle size/ Ø (nm) [2] [nm] | Z Potential (± D.E.) [mV] [2] [mV] | Apparent pKa [3] | Structure (SMILES)
16 | 41.05 | 0.18 | 169.3 | -12.18 | 5.29 | CCCCCCCC/C=C\CCCCCCCCOC(=O)CCSCCC(NC(=O)C(CCCCCC)CCCCCCCC)C(=O)NCCCN1CCOCC1 (centres unmarked) [VC-LC-0361]
17 | 93.61 | 0.2 | 185.7 | -0.83 | 7.18 | CCCCCCCCC(CCCCCC)C(=O)NC(CCSCCC(=O)OCCCCCCC)C(=O)NCCCN(CCO)CCO (centres unmarked) [VC-LC-0207]
18 | 97.61 | 0.15 | 144.9 | -2.73 | 7.39 | CCCCCCCCCCC(CCCCCCCC)C(=O)NC(CCSCCC(=O)OCC(CC)CCCC)C(=O)NCC1CCN(C)CC1 (centres unmarked) [VC-LC-0510]
19 | 94.63 | 0.18 | 177.7 | 7.79 | 7.06 | CCCCCCCC/C=C\CCCCCCCC(=O)NC(CCSCCC(=O)OCCCCCCCC(C)C)C(=O)NCCCN(CCO)CCO (centres unmarked) [VC-LC-0292]
20 | 99.89 | 0.15 | 137.8 | 8.05 | 8.11 | CCCCCCCCC(CCCCCC)COC(=O)C(CSCCC(=O)OCCCCCC(C)C)CC(=O)NC1CCN(C)CC1 (centres unmarked) [VC-LC-0532]
21 | 43.07 | 0.085 | 134.0 | -7.78 | 6.73 | CCCCCCCCCCCCCOC(=O)CCSCCC(NC(=O)C(CCCCCC)CCCCCCCC)C(=O)NCCN(CC)CC (centres unmarked) [VC-LC-0473]
22 | 89.18 | 0.16 | 122.6 | -13.24 | 6.33 | CCCCCCCCCCCCOC(=O)CCSCCC(C(=O)NCCCn1ccnc1)C(=O)OC(CCCCCCCC)CCCCCCCC (centres unmarked) [VC-LC-0366]
23 | 62.80 | 0.14 | 146.3 | -5.38 | 6.64 | CCCCCCCC/C=C\CCCCCCCC(=O)NC(CCSCC(=O)OCCCCCCCCCCCCC)C(=O)NCCCN1CCOCC1 (centres unmarked) [VC-LC-0338]
24 | 46.96 | 0.14 | 155.6 | -12.49 | 6.48 | CCCCCCCC#CCOC(=O)CCSCCC(NC(=O)C(CCCCCC)CCCCCCCC)C(=O)NC1CCN(C)CC1 (centres unmarked) [VC-LC-0429]
25 | 52.30 | 0.24 | 136.3 | -11.79 | 5.68 | CCCCCCCCCCCCCOC(=O)CCSCCC(C(=O)NCCCN1CCOCC1)C(=O)OCC(CCCCCC)CCCCCCCC (centres unmarked) [VC-LC-0605]
26 | 73.32 | 0.2 | 154.5 | -6.33 | 6.37 | CCCCCCCCCCCCCCCCOC(=O)CCSCCC(NC(=O)C(CCCCCC)CCCCCCCC)C(=O)NCCN(CC)CC (centres unmarked) [VC-LC-0480]
27 | 66.27 | 0.21 | 153.2 | -7.69 | 5.61 | CCCCCCCCC(CCCCCC)COC(=O)CCSCCC(NC(=O)C(CCCCCC)CCCCCCCC)C(=O)NCCN(CC)CC (centres unmarked) [VC-LC-0474]
28 | 98.15 | 0.16 | 150.9 | 0.83 | 7.47 | CCCCCCCCC(CCCCCC)C(=O)NC(CCSCCC(=O)OCCCCCCCC(C)C)C(=O)NCC1CCN(C)CC1 (centres unmarked) [VC-LC-0492]
29 | 41.89 | 0.14 | 138.8 | -8.47 | 6.21 | CCCCCCCCC(CCCCCC)C(=O)NC(CCSCCC(=O)OCC(CC)CCCC)C(=O)NCCCn1ccnc1 (centres unmarked) [VC-LC-0259]
30 | 60.57 | 0.13 | 143.8 | -5.88 | 6.03 | CCCCCCCC/C=C\CCCCCCCCOC(=O)CCSCCC(NC(=O)C(CCCCCC)CCCCCCCC)C(=O)NCCN(CC)CC (centres unmarked) [VC-LC-0489]
31 | 92.30 | 0.12 | 184.3 | -15.91 | 5.91 | CCCCCCCCCCCCCOC(=O)CCSCCC(NC(=O)C(CCCCCC)CCCCCCCC)C(=O)NCCCn1ccnc1 (centres unmarked) [VC-LC-0256]
32 | 66.86 | 0.24 | 124.1 | -17.43 | 6.33 | CCCCCCCCC(CCCCCCCC)OC(=O)C(CCSCCC(=O)OCC(CC)CCCC)C(=O)NCCCn1ccnc1 (centres unmarked) [VC-LC-0365]
